Laboratory results reported in paper PMC5869189 (Frontiers in Immunology, 2018).
Where “and” joins values, the source holds several entries; their conditions need not be identical. Equal values may be shown once.

Tests used:
HLA-DRB1*15:02 = molecular target: T1, HLA-DRB1*15:02 (Homo sapiens, UniProt P01903+P01911, V115G); type: binding; design: reference not given here; details: 24–72 h at 37°C
T1 construct: Purified HLA-DR heterodimers derived from the relevant EBV B-lymphoblastoid cell lines; endogenous in cells
T1 sequence (P01903 26-254, other chains not shown): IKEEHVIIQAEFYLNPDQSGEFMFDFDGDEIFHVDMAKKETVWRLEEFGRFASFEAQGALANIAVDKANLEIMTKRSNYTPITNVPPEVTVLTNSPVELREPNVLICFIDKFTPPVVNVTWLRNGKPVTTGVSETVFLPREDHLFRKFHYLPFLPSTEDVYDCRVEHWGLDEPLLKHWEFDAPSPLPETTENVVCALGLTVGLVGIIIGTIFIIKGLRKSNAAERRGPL

[1] = test system: PBMC from healthy, seropositive donors; type: cell-based, human
HLA-DRB1*11:01 = molecular target: T2, HLA-DRB1*11:01 (Homo sapiens, UniProt P01903+P01911, A100R/A169T/A87E/I96F/K41T/L162R/M171V/P40S/Q125H/Q178H/Q39Y/Q99D/R42S/S66Y/T262R/V115G/W38E); type: binding; design: reference not given here; details: 24–72 h at 37°C
T2 construct: Purified HLA-DR heterodimers derived from the relevant EBV B-lymphoblastoid cell lines; endogenous in cells
T2 sequence (P01903 26-254, other chains not shown): as above

HLA-DRB1*07 = type: binding, human; design: reference not given here; details: 24–72 h at 37°C
HLA-DRB1*09 = type: binding, human; design: reference not given here; details: 24–72 h at 37°C
HLA-DRB1*12:02 = HLA-DRB1*12:02 (Homo sapiens, UniProt P01903+P01911, A100R/A169T/D57E/D86V/F55L/H45Y/I96F/K41T/L162R/M171V/P40S/Q125H/Q178H/Q39Y/Q99D/R42G/S66L/T262R/V114A/V67L/W38E/Y59H/Y61H/Y89S); type: binding; design: reference not given here; details: 24–72 h at 37°C
HLA-DRB1*15:01 = molecular target: T3, HLA-DRB1*15:01 (Homo sapiens, UniProt P01903+P01911); type: binding; design: reference not given here; details: 24–72 h at 37°C
T3 construct: Purified HLA-DR heterodimers derived from the relevant EBV B-lymphoblastoid cell lines; endogenous in cells

HLA-DRB1*04 = type: binding, human; design: reference not given here; details: 24–72 h at 37°C
[2] = test system: PBMC from melioidosis patients and control donors; type: cell-based, human
[3] = test system: HLA class-II heterodimers (HLA DRB1*04, 07, 09, 11:01, 12:02, 15:01, 15:02); type: binding, human
[4] = test system: HLA-DQB1*0602 and HLA-DQB1*0302; details: cited from earlier work

Row | Sequence | HLA binding, relative HLA binding affinity (HLA-DRB1*15:02) | % Responders [1] | Median SFC/10^6 PBMCs (IFN-g) [1] | HLA binding, relative HLA binding affinity (HLA-DRB1*11:01) | HLA binding, relative HLA binding affinity (HLA-DRB1*07) | HLA binding, relative HLA binding affinity (HLA-DRB1*09) | HLA binding, relative HLA binding affinity (HLA-DRB1*12:02) | HLA binding, relative HLA binding affinity (HLA-DRB1*15:01) | other results
1 | AAKIQGMNVEVVVATGYTDR [BPSL2522_P13] | 667 | 100% | 291 | 23 | 11 | 42 | 5 | 5 | Elispot, Median SFC/10^6 PBMCs of HLA donors [1]: 362 SFC/10^6 PBMCs and 488 SFC/10^6 PBMCs and 487 SFC/10^6 PBMCs and 578 SFC/10^6 PBMCs and 351 SFC/10^6 PBMCs and 534 SFC/10^6 PBMCs
2 | VVVATGYTDRIGSDKYNDRL [BPSL2522_P14] | 1 826 | 100% | 290 | >278 | >336 | >689 | >136 | 10 | HLA binding, relative HLA binding affinity (HLA-DRB1*04): >145; IFNγ response compared between cohorts (Figure 2) [2]: lower in recovered patients than in seropositive healthy donors; IFNγ response, acute septicemic melioidosis compared with recovered individuals (Figure 3) [2]: lower during acute disease
3 | PAGKQKLDELAAKIQGMNVE [BPSL2522_P12] | >3 333 | 97.1% and 97% | 308 | 77 | 333 | >689 | 40 | >270 | HLA binding, relative HLA binding affinity (HLA-DRB1*04): >145
4 | KDFTFVCPTEIVEFAKLAKQ [BPSL2096_P6] | 222 | 82.4% and 82% | 333 | 43 | 0.3 | 18 | 25 | 7 | HLA class-II binding across the panel (in words) [3]: moderate to high affinity; HLA binding, relative HLA binding affinity (HLA-DRB1*04): 9; IFNγ response, acute septicemic melioidosis compared with recovered individuals (Figure 3) [2]: lower during acute disease; Presentation through HLA-DQ [4]: can be presented also through HLA-DQB1*0602 and HLA-DQB1*0302
5 | NQNPQITASVVGYTDSTGSA [BPSL0999_P14] | 542 | 95.7% and 96% | 373 | 189 | 30.2 | 37 | >136 | 1 | Elispot, Median SFC/10^6 PBMCs of HLA donors [1]: 583 SFC/10^6 PBMCs and 417 SFC/10^6 PBMCs and 601 SFC/10^6 PBMCs and 460 SFC/10^6 PBMCs and 567 SFC/10^6 PBMCs and 588 SFC/10^6 PBMCs and 489 SFC/10^6 PBMCs; HLA binding, relative HLA binding affinity (HLA-DRB1*04): 33
6 | RGVAANRLSAQGMGASNPIA [BPSL0999_P18] | >3 333 | 93.6% and 94% | 375 | 72 | 11 | 367 | 14 | 157 | Elispot, Median SFC/10^6 PBMCs of HLA donors [1]: 617 SFC/10^6 PBMCs and 415 SFC/10^6 PBMCs and 456 SFC/10^6 PBMCs and 487 SFC/10^6 PBMCs and 634 SFC/10^6 PBMCs and 616 SFC/10^6 PBMCs and 441 SFC/10^6 PBMCs; HLA binding, relative HLA binding affinity (HLA-DRB1*04): 82
7 | DTDGERATLDVPLTAPTAND [BPSS1599_P32] |  | 87.5% | 148 |  |  |  |  |  | 
8 | KLVDLQLPGARLNALPNPPR [BPSS0530_P39] |  | 86.0% | 221 |  |  |  |  |  | 
9 | QGMGASNPIADNATEAGRAQ [BPSL0999_P19] |  | 97.9% | 375 |  |  |  |  |  | 
10 | LEGAFYNGRRQPAPNWLGAF [BPSS1599_P9] |  | 85.4% | 126 |  |  |  |  |  | 
11 | DRELGYDHDDLQTSFEPLAM [BPSS0530_P30] |  | 88.4% | 310 |  |  |  |  |  | 
12 | EFVRAIDVPGLRVERIAYQN [BPSS1599_P41] |  | 87.5% | 135 |  |  |  |  |  | 
13 | ELVGLLGRLSVLPGVDEELA [BPSS0530_P28] |  | 88.4% | 260 |  |  |  |  |  | 
14 | QRFVGGLFWQSLSRRNELRA [BPSS1599_P2] |  | 81.3% | 137 |  |  |  |  |  | 
15 | AELAARPEYRELQPYARQQA [BPSS1525_P20] |  | 92.3% | 216 |  |  |  |  |  | 
16 | KGELIDQLGVRDKEAGVALR [BPSL2096_P12] |  | 97.1% | 317 |  |  |  |  |  | 
17 | NQWTLEGVLYAK [BPSS1599_P43] |  | 81.3% | 120 |  |  |  |  |  | 
18 | SVLAQEAPARQHRIDMHGMR [BPSS1531_P31] |  | 88.6% | 182 |  |  |  |  |  | 
19 | AALPDALAFARACAMRFGRL [BPSS1599_P26] |  | 89.6% | 164 |  |  |  |  |  | 
